{
  "source": "patent US11959486B2",
  "about": "“Stable liquid formulation of AMG 416 (etelcalcetide)” (AMGEN INC., priority 2013, dated 2024)",
  "assay": "Stability of liquid formulations over range of pH 2-6 in succinate-buffered saline, HPLC purity, with extrapolation (Example 3)",
  "format": "physicochemical",
  "details": "for Observed degradation at 28 days / Calculated Degradation at 1 y RT / Calculated Degradation at 2 y 5° C. / Calculated Degradation at 2 y RT / Calculated Degradation at 360 d: 10 mg/mL",
  "method": "The solution was divided evenly into five 4 mL portions which were adjusted to pH 2, 3, 4, 5 and 6, respectively, with NaOH and HCl as needed. Three 1 mL solutions were aliquoted from each portion and incubated at 2-8° C., room temperature (about 25° C.), and 40° C., respectively. The remaining 1 mL solution in each aliquot was diluted with pH 4.5 succinate buffered saline to 4 mL of 2.5 mg/mL peptide concentration, pH adjusted, and incubated in the same manner.\nBased on the extent of degradation at 28 days, predictions of the extent of degradation were calculated as described, supra. Bolded values indicate conditions which show less than 10% degradation, and which may be preferred for a liquid formulation. Conditions where the sample at 28 days show slightly higher purity than the initial data are presented as 0.0% for all projections.\nAt each pH value, the degradation data for each of three temperatures is compared to data from the other two temperatures to calculate the observed acceleration. The predicted acceleration is by simple application of Arrhenius principles as described above.",
  "data": [
    {"molecule": "CC(=O)N[C@H](CSSC[C@H](N)C(=O)O)C(=O)N[C@H](C)C(=O)N[C@H](CCCNC(=N)N)C(=O)N[C@H](CCCNC(=N)N)C(=O)N[C@H](CCCNC(=N)N)C(=O)N[C@H](C)C(=O)N[C@H](CCCNC(=N)N)C(N)=O", "note": "[AMG 416, N-acetyl-D-cysteinyl-D-alanyl-D-arginyl-D-arginyl-D-arginyl-D-alanyl-D-arginamide disulfide with L-cysteine]", "values": [
      {"measurement": "Observed degradation at 28 days", "setting": "pH 2, 2-8° C.", "result": 0.3, "unit": "%"},
      {"measurement": "Observed degradation at 28 days", "setting": "pH 2, 40° C.", "result": 5.3, "unit": "%"},
      {"measurement": "Observed degradation at 28 days", "setting": "pH 2, RT", "result": 0.6, "unit": "%"},
      {"measurement": "Calculated Degradation at 1 y RT", "setting": "pH 2, from 2-8° C. data", "result": 15.4, "unit": "%"},
      {"measurement": "Calculated Degradation at 2 y 5° C.", "setting": "pH 2, from 2-8° C. data", "result": 7.7, "unit": "%"},
      {"measurement": "Calculated Degradation at 2 y RT", "setting": "pH 2, from 2-8° C. data", "result": 30.7, "unit": "%"},
      {"measurement": "Calculated Degradation at 360 d", "setting": "pH 2, from 2-8° C. data", "result": 3.8, "unit": "%"},
      {"measurement": "Calculated Degradation at 1 y RT", "setting": "pH 2, from 40° C. data", "result": 17.1, "unit": "%"},
      {"measurement": "Calculated Degradation at 2 y 5° C.", "setting": "pH 2, from 40° C. data", "result": 8.6, "unit": "%"},
      {"measurement": "Calculated Degradation at 2 y RT", "setting": "pH 2, from 40° C. data", "result": 34.2, "unit": "%"},
      {"measurement": "Calculated Degradation at 360 d", "setting": "pH 2, from 40° C. data", "result": 68.4, "unit": "%"},
      {"measurement": "Calculated Degradation at 1 y RT", "setting": "pH 2, from RT data", "result": 8.1, "unit": "%"},
      {"measurement": "Calculated Degradation at 2 y 5° C.", "setting": "pH 2, from RT data", "result": 4.0, "unit": "%"},
      {"measurement": "Calculated Degradation at 2 y RT", "setting": "pH 2, from RT data", "result": 16.1, "unit": "%"},
      {"measurement": "Calculated Degradation at 360 d", "setting": "pH 2, from RT data", "result": 8.1, "unit": "%"},
      {"measurement": "Observed degradation at 28 days", "setting": "pH 3, 2-8° C.", "result": "−0.2", "unit": "%"},
      {"measurement": "Observed degradation at 28 days", "setting": "pH 3, 40° C.", "result": 1.1, "unit": "%"},
      {"measurement": "Observed degradation at 28 days", "setting": "pH 3, RT", "result": 0.2, "unit": "%"},
      {"measurement": "Calculated Degradation at 1 y RT", "setting": "pH 3, from 2-8° C. data", "result": 0.0, "unit": "%"},
      {"measurement": "Calculated Degradation at 2 y 5° C.", "setting": "pH 3, from 2-8° C. data", "result": 0.0, "unit": "%"},
      {"measurement": "Calculated Degradation at 2 y RT", "setting": "pH 3, from 2-8° C. data", "result": 0.0, "unit": "%"},
      {"measurement": "Calculated Degradation at 360 d", "setting": "pH 3, from 2-8° C. data", "result": 0.0, "unit": "%"},
      {"measurement": "Calculated Degradation at 1 y RT", "setting": "pH 3, from 40° C. data", "result": 3.5, "unit": "%"},
      {"measurement": "Calculated Degradation at 2 y 5° C.", "setting": "pH 3, from 40° C. data", "result": 1.8, "unit": "%"},
      {"measurement": "Calculated Degradation at 2 y RT", "setting": "pH 3, from 40° C. data", "result": 7.0, "unit": "%"},
      {"measurement": "Calculated Degradation at 360 d", "setting": "pH 3, from 40° C. data", "result": 14.1, "unit": "%"},
      {"measurement": "Calculated Degradation at 1 y RT", "setting": "pH 3, from RT data", "result": 2.6, "unit": "%"},
      {"measurement": "Calculated Degradation at 2 y 5° C.", "setting": "pH 3, from RT data", "result": 1.3, "unit": "%"},
      {"measurement": "Calculated Degradation at 2 y RT", "setting": "pH 3, from RT data", "result": 5.1, "unit": "%"},
      {"measurement": "Calculated Degradation at 360 d", "setting": "pH 3, from RT data", "result": 2.6, "unit": "%"},
      {"measurement": "Observed degradation at 28 days", "setting": "pH 4, 2-8° C.", "result": "−0.1", "unit": "%"},
      {"measurement": "Observed degradation at 28 days", "setting": "pH 4, 40° C.", "result": 14.3, "unit": "%"},
      {"measurement": "Observed degradation at 28 days", "setting": "pH 4, RT", "result": 0.7, "unit": "%"},
      {"measurement": "Calculated Degradation at 1 y RT", "setting": "pH 4, from 2-8° C. data", "result": 0.0, "unit": "%"},
      {"measurement": "Calculated Degradation at 2 y 5° C.", "setting": "pH 4, from 2-8° C. data", "result": 0.0, "unit": "%"},
      {"measurement": "Calculated Degradation at 2 y RT", "setting": "pH 4, from 2-8° C. data", "result": 0.0, "unit": "%"},
      {"measurement": "Calculated Degradation at 360 d", "setting": "pH 4, from 2-8° C. data", "result": 0.0, "unit": "%"},
      {"measurement": "Calculated Degradation at 1 y RT", "setting": "pH 4, from 40° C. data", "result": 45.8, "unit": "%"},
      {"measurement": "Calculated Degradation at 2 y 5° C.", "setting": "pH 4, from 40° C. data", "result": 22.9, "unit": "%"},
      {"measurement": "Calculated Degradation at 2 y RT", "setting": "pH 4, from 40° C. data", "result": 91.7, "unit": "%"},
      {"measurement": "Calculated Degradation at 360 d", "setting": "pH 4, from 40° C. data", "result": ">100", "unit": "%"},
      {"measurement": "Calculated Degradation at 1 y RT", "setting": "pH 4, from RT data", "result": 8.6, "unit": "%"},
      {"measurement": "Calculated Degradation at 2 y 5° C.", "setting": "pH 4, from RT data", "result": 4.3, "unit": "%"},
      {"measurement": "Calculated Degradation at 2 y RT", "setting": "pH 4, from RT data", "result": 17.1, "unit": "%"},
      {"measurement": "Calculated Degradation at 360 d", "setting": "pH 4, from RT data", "result": 8.6, "unit": "%"},
      {"measurement": "Observed degradation at 28 days", "setting": "pH 5, 2-8° C.", "result": 0.3, "unit": "%"},
      {"measurement": "Observed degradation at 28 days", "setting": "pH 5, 40° C.", "result": 34.9, "unit": "%"},
      {"measurement": "Observed degradation at 28 days", "setting": "pH 5, RT", "result": 5.6, "unit": "%"},
      {"measurement": "Calculated Degradation at 1 y RT", "setting": "pH 5, from 2-8° C. data", "result": 13.8, "unit": "%"},
      {"measurement": "Calculated Degradation at 2 y 5° C.", "setting": "pH 5, from 2-8° C. data", "result": 6.9, "unit": "%"},
      {"measurement": "Calculated Degradation at 2 y RT", "setting": "pH 5, from 2-8° C. data", "result": 27.6, "unit": "%"},
      {"measurement": "Calculated Degradation at 360 d", "setting": "pH 5, from 2-8° C. data", "result": 3.5, "unit": "%"},
      {"measurement": "Calculated Degradation at 1 y RT", "setting": "pH 5, from 40° C. data", "result": ">100", "unit": "%"},
      {"measurement": "Calculated Degradation at 2 y 5° C.", "setting": "pH 5, from 40° C. data", "result": 55.9, "unit": "%"},
      {"measurement": "Calculated Degradation at 2 y RT", "setting": "pH 5, from 40° C. data", "result": ">100", "unit": "%"},
      {"measurement": "Calculated Degradation at 360 d", "setting": "pH 5, from 40° C. data", "result": ">100", "unit": "%"},
      {"measurement": "Calculated Degradation at 1 y RT", "setting": "pH 5, from RT data", "result": 71.4, "unit": "%"},
      {"measurement": "Calculated Degradation at 2 y 5° C.", "setting": "pH 5, from RT data", "result": 35.7, "unit": "%"},
      {"measurement": "Calculated Degradation at 2 y RT", "setting": "pH 5, from RT data", "result": ">100", "unit": "%"},
      {"measurement": "Calculated Degradation at 360 d", "setting": "pH 5, from RT data", "result": 71.4, "unit": "%"},
      {"measurement": "Observed degradation at 28 days", "setting": "pH 6, 2-8° C.", "result": 1.9, "unit": "%"},
      {"measurement": "Observed degradation at 28 days", "setting": "pH 6, 40° C.", "result": 45.1, "unit": "%"},
      {"measurement": "Observed degradation at 28 days", "setting": "pH 6, RT", "result": 26.9, "unit": "%"},
      {"measurement": "Calculated Degradation at 1 y RT", "setting": "pH 6, from 2-8° C. data", "result": 95.7, "unit": "%"},
      {"measurement": "Calculated Degradation at 2 y 5° C.", "setting": "pH 6, from 2-8° C. data", "result": 47.8, "unit": "%"},
      {"measurement": "Calculated Degradation at 2 y RT", "setting": "pH 6, from 2-8° C. data", "result": ">100", "unit": "%"},
      {"measurement": "Calculated Degradation at 360 d", "setting": "pH 6, from 2-8° C. data", "result": 23.9, "unit": "%"},
      {"measurement": "Calculated Degradation at 1 y RT", "setting": "pH 6, from 40° C. data", "result": ">100", "unit": "%"},
      {"measurement": "Calculated Degradation at 2 y 5° C.", "setting": "pH 6, from 40° C. data", "result": 72.2, "unit": "%"},
      {"measurement": "Calculated Degradation at 2 y RT", "setting": "pH 6, from 40° C. data", "result": ">100", "unit": "%"},
      {"measurement": "Calculated Degradation at 360 d", "setting": "pH 6, from 40° C. data", "result": ">100", "unit": "%"},
      {"measurement": "Calculated Degradation at 1 y RT", "setting": "pH 6, from RT data", "result": ">100", "unit": "%"},
      {"measurement": "Calculated Degradation at 2 y 5° C.", "setting": "pH 6, from RT data", "result": ">100", "unit": "%"},
      {"measurement": "Calculated Degradation at 2 y RT", "setting": "pH 6, from RT data", "result": ">100", "unit": "%"},
      {"measurement": "Calculated Degradation at 360 d", "setting": "pH 6, from RT data", "result": ">100", "unit": "%"},
      {"measurement": "extrapolated degradation after 2 years at room temperature", "setting": "2.5 or 10 mg/mL solutions at pH 3", "result": "less than 10%"},
      {"measurement": "pH of least degradation", "setting": "28 day point, 10 and 2.5 mg/mL", "result": "approximately 3.0"}
    ]}
  ]
}
